# Reference: ChEMBL document CHEMBL5465560, “Selectivity Literature for EUbOPEN Chemogenomic Library” (2024)
# Tests used:
# [1] = target: T1, Dual specificity tyrosine-phosphorylation-regulated kinase 2 (Homo sapiens) (UniProt Q92630); test: Selectivity interaction (LanthaScreen Eu Kinase Binding Assay) EUB0001632a DYRK2; conditions: at 10 µM
# T1 sequence (whole entry): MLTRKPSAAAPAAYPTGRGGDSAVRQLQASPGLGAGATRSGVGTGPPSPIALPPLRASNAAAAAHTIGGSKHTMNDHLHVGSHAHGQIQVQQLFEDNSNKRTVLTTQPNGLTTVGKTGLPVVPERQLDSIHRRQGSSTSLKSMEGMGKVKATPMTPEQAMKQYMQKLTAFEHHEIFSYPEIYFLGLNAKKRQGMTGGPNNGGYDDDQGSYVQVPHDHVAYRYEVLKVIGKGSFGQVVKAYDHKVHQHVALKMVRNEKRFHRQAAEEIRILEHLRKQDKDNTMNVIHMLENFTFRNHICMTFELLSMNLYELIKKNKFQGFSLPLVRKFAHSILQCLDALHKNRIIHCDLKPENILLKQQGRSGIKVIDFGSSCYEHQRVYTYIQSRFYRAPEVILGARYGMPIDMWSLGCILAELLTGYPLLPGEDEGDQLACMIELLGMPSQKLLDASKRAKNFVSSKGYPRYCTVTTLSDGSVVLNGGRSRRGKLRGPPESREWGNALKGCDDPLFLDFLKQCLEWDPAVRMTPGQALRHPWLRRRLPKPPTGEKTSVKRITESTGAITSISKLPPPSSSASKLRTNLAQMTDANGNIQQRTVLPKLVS
# [2] = target: NT-3 growth factor receptor (Homo sapiens, UniProt Q16288); test: Selectivity interaction (KinomeScan (DiscoverX)) EUB0000666a NTRK3; conditions: at 10 µM
# Sequence of NT-3 growth factor receptor (Q16288 32-839 limits assumed): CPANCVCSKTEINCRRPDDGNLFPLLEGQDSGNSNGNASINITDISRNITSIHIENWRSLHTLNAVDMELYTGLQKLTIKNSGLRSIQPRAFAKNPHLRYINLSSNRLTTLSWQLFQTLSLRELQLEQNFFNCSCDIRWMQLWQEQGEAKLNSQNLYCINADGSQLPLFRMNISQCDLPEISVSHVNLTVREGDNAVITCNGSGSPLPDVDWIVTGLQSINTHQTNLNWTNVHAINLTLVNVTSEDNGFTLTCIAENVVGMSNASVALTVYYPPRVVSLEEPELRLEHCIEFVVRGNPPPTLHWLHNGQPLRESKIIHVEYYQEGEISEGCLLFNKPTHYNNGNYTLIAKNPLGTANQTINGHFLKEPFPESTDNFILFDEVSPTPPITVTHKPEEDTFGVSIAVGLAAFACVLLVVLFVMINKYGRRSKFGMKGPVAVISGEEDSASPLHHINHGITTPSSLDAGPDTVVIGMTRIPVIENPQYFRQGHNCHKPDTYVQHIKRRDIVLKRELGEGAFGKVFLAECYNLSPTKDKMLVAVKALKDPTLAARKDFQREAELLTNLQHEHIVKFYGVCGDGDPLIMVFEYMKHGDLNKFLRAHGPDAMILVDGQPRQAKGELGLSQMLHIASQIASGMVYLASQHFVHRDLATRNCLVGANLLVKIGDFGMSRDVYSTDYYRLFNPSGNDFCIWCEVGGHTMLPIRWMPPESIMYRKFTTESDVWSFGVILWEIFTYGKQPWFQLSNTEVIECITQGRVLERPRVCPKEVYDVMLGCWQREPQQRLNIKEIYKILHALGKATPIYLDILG
# [3] = target: Serine/threonine-protein kinase tousled-like 2 (Homo sapiens) (UniProt Q86UE8); test: Selectivity interaction (KinomeScan (DiscoverX)) EUB0000666a TLK2; conditions: at 10 µM
# [4] = target: Phosphorylase b kinase gamma catalytic chain, skeletal muscle/heart isoform (Homo sapiens) (UniProt Q16816); test: Selectivity interaction (KinomeScan (DiscoverX)) EUB0000666a PHKG1; conditions: at 10 µM
# Sequence of Phosphorylase b kinase gamma catalytic chain, skeletal muscle/heart isoform (Homo sapiens) (Q16816 whole entry, looked up, canonical isoform): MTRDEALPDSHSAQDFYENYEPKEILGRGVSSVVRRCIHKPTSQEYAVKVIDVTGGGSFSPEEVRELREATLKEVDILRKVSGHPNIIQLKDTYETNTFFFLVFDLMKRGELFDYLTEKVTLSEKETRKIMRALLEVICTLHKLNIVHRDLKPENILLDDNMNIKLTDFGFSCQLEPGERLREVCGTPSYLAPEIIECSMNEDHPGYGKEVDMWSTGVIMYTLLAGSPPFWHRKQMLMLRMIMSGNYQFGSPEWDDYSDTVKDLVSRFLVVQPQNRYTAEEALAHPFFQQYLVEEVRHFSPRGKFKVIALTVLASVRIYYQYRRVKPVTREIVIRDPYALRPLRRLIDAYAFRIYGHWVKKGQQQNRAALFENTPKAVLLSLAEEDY
# [5] = target: T2, Serine/threonine-protein kinase Nek11 (Homo sapiens) (UniProt Q8NG66); test: Selectivity interaction (KinomeScan (DiscoverX)) EUB0000666a NEK11; conditions: at 10 µM
# T2 sequence (whole entry): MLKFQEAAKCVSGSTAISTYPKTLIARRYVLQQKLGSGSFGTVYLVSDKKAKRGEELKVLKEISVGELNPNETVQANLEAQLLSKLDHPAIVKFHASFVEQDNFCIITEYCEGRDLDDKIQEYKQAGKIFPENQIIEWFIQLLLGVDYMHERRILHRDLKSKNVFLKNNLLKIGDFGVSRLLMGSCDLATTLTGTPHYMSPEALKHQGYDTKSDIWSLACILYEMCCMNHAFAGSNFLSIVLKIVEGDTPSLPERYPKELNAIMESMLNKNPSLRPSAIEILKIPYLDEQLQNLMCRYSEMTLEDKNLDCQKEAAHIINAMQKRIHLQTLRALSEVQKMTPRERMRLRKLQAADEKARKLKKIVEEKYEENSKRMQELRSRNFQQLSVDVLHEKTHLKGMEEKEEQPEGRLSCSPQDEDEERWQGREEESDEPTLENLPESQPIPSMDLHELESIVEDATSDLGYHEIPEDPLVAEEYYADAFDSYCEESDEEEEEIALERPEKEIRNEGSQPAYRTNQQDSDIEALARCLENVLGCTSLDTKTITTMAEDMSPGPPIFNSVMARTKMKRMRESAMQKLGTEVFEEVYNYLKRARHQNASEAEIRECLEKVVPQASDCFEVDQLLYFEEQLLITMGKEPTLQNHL
# [6] = target: Non-receptor tyrosine-protein kinase TYK2 (Homo sapiens, UniProt P29597); test: Selectivity interaction (KinomeScan (DiscoverX)) EUB0000607a TYK2; conditions: at 10 µM
# Sequence of Non-receptor tyrosine-protein kinase TYK2 (P29597 whole entry): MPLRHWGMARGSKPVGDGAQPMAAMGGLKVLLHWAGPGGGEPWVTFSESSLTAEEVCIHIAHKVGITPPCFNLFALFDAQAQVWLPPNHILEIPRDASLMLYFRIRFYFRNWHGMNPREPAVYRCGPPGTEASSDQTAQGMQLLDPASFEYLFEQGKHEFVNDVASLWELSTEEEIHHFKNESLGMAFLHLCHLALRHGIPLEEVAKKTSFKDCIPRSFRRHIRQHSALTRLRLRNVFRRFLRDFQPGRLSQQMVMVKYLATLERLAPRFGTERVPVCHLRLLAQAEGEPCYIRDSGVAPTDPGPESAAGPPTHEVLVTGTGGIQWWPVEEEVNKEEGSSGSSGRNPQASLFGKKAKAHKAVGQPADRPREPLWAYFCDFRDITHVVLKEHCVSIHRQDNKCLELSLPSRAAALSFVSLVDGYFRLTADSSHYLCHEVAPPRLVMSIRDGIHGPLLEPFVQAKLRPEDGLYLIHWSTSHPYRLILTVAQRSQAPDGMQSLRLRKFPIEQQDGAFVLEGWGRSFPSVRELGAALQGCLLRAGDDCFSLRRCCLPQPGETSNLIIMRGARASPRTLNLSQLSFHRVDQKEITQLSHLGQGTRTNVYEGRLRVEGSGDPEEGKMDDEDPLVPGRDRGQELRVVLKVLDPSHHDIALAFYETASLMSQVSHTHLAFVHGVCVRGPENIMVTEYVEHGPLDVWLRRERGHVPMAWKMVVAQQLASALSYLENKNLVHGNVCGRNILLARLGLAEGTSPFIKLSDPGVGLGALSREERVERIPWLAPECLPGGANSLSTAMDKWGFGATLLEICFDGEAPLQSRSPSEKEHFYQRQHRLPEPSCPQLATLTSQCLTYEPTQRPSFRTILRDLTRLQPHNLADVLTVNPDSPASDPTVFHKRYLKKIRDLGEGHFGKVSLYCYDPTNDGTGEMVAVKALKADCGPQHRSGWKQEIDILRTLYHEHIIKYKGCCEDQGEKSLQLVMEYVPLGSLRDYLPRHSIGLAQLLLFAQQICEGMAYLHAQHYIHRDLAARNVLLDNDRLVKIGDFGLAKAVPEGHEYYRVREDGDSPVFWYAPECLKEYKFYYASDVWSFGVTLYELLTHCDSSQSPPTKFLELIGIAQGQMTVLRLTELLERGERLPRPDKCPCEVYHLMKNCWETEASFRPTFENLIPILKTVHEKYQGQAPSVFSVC
# [7] = target: Tyrosine-protein kinase Blk (Homo sapiens) (UniProt P51451); test: Selectivity interaction (SelectScreen profiling (Invitrogen)) EUB0000607a BLK; conditions: at 2 µM
# Sequence of Tyrosine-protein kinase Blk (Homo sapiens) (P51451 2-505 limits assumed): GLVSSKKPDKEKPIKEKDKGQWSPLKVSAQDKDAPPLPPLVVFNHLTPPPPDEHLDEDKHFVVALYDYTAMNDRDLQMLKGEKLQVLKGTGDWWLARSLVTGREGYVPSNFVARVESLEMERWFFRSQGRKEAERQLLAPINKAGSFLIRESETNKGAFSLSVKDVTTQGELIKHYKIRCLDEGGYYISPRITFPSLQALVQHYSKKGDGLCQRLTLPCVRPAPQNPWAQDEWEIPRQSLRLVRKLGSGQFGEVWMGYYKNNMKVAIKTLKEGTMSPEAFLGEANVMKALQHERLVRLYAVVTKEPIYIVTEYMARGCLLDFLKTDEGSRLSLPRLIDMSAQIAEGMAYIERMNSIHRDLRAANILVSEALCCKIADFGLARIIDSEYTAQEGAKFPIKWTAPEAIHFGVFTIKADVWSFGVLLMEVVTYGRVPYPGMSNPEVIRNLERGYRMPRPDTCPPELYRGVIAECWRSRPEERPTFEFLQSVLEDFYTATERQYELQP
# [8] = target: Angiopoietin-1 receptor (Homo sapiens) (UniProt Q02763); test: Selectivity interaction (KinaseProfiler screening (Millipore)) EUB0000601a TEK; conditions: at 3 µM
# Sequence of Angiopoietin-1 receptor (Homo sapiens) (Q02763 whole entry): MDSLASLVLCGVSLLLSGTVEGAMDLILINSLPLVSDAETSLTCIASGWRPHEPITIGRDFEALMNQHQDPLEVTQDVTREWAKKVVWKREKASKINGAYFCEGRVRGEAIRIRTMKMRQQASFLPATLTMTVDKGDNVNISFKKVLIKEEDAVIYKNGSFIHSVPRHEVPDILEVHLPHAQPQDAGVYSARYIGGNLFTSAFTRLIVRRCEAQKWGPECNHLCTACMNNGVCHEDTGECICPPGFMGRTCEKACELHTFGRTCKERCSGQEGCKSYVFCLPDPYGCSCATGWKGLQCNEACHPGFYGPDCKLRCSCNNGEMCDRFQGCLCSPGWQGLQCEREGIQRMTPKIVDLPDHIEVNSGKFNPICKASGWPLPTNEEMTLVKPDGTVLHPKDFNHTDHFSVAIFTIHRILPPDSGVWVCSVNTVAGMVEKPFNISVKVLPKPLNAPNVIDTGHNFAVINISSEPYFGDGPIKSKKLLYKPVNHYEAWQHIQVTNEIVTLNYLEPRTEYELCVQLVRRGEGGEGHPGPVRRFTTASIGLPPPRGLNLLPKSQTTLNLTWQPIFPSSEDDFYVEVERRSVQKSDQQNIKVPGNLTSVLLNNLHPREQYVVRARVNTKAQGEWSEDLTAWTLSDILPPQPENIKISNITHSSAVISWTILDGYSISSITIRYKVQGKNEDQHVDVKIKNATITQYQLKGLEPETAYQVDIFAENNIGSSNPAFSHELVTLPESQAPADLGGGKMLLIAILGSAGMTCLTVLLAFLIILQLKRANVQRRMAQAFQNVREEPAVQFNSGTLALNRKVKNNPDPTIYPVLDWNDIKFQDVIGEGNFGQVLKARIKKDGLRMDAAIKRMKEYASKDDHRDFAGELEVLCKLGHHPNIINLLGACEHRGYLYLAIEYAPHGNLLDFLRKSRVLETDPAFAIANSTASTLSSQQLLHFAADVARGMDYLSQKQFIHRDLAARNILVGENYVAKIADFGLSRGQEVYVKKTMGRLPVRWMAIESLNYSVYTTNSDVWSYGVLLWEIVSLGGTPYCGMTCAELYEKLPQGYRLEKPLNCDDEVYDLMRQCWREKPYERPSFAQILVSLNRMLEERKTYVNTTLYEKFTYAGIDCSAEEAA
# [9] = target: T3, Protein kinase C iota type (Homo sapiens) (UniProt P41743); test: Selectivity interaction (KinomeScan (DiscoverX)) EUB0000655a PRKCI; conditions: at 10 µM
# T3 sequence (whole entry): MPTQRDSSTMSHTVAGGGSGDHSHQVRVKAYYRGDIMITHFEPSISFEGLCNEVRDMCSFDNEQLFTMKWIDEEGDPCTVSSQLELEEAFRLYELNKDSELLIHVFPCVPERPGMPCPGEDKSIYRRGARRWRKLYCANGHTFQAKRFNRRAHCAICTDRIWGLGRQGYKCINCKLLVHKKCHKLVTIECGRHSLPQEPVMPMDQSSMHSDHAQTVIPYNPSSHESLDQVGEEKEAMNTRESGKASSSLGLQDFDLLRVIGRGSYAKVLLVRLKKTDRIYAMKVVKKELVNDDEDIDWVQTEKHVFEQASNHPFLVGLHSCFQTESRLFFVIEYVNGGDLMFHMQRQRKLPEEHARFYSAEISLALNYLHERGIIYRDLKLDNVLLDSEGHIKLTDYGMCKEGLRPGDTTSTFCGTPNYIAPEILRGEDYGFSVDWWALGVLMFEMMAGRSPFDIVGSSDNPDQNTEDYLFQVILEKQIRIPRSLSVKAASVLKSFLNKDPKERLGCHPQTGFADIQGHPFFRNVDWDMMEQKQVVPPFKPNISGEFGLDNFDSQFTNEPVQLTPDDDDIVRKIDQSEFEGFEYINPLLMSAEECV
# [10] = target: Serine/threonine-protein kinase PAK 4 (Homo sapiens, UniProt O96013); conditions: at 10 µM
# Sequence of Serine/threonine-protein kinase PAK 4 (O96013 whole entry, looked up, canonical isoform): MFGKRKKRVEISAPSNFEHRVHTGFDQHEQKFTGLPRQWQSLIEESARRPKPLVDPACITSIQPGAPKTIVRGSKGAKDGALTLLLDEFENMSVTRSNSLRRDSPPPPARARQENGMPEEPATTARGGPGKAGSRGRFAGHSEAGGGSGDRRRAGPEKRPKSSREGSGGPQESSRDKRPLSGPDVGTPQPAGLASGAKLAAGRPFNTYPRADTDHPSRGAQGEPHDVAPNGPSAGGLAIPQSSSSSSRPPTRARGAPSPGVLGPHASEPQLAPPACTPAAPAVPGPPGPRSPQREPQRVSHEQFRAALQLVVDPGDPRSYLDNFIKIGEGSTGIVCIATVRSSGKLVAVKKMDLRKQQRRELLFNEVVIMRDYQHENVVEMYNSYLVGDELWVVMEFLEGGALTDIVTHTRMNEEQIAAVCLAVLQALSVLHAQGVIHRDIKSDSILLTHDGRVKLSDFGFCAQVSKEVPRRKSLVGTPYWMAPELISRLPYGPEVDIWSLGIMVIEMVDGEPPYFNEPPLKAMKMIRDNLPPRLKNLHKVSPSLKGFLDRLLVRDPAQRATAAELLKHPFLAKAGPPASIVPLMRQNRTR
# [11] = target: Casein kinase I isoform alpha (Homo sapiens, UniProt P48729); test: Selectivity interaction (KinomeScan (DiscoverX)) EUB0000618a CSNK1A1; conditions: at 10 µM
# Sequence of Casein kinase I isoform alpha (P48729 2-337 limits assumed): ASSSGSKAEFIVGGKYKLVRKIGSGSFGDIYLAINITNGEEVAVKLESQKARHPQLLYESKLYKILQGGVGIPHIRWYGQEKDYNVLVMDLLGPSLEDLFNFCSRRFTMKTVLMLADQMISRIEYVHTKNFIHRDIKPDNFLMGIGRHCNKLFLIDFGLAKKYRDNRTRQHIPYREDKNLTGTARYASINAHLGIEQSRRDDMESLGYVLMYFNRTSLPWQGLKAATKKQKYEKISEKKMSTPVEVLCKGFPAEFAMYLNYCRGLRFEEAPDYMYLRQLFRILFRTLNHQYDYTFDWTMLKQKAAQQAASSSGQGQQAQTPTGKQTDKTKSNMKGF
smiles,measurement,setting,value
Cn1cc(-n2cnc3c(NCc4nc5cc(Cl)c(Cl)cc5[nH]4)nc(N4CCOCC4)nc32)cn1,% of inhibition,[1],-265%
O=C(NOC[C@H](O)CO)c1ccc(F)c(F)c1Nc1ccc(I)cc1F,% of control,[2],93%
same,% of control,[3],98%
same,% of control,[4],100%
same,% of control,[5],91%
CNC(=O)Nc1ccc(-c2nc(N3CC4CCC(C3)O4)c3cnn(C4CCC5(CC4)OCCO5)c3n2)cc1,% of control,[6],100%
same,% of inhibition,[7],1%
CCc1cc(Nc2nccc(-c3c(-c4ccc(OC)c(C(=O)Nc5c(F)cccc5F)c4)nc4ccccn34)n2)c(OC)cc1N1CCC(N2CCN(S(C)(=O)=O)CC2)CC1,% of inhibition,[8],41%
CN(C)CCOc1ccc(-c2nc(-c3ccncc3)c(-c3ccc4c(c3)CC/C4=N\O)[nH]2)cc1,% of control,[9],80%
Cc1cc([C@@H](C)Nc2ccccc2C(=O)O)c2nc(N3CCOCC3)cc(=O)n2c1 [AZD-6482],% of control,[10],100%
O[C@H]1CC[C@H](Nc2ncc3nc(Nc4c(F)cc(F)cc4F)n([C@H]4CCOC4)c3n2)CC1,% of control,[11],100%
